Test results taken from patent US20250281629A1, “COMPOSITIONS AND METHODS FOR ANTI-PHOSPHOCHOLINE ACTIVE IMMUNOTHERAPY” (Duke University, priority 2022, published 2025).
Where no end group is shown, it is not given here. C11H22NO6P = phosphorylcholine group attached via 2-methacryloyloxyethyl phosphorylcholine

Columns and labels:
[1] = Zeta potential of nanofibers; assay type: physicochemical; settings: 1 mM conjugate coassembled with 1 mM Q11; 0.2 mM in 1×PBS, 25° C.
Method: Zeta Potential. Nanofibers were diluted to 0.2 mM in 1×PBS and zeta potential measurements were conducted at 25° C. using an Anton Paar Litesizer 500.

[2] = tested on: plasma cells (B220^+CD138^+); experiment: Colon B cell populations by flow cytometry: plasma cells; assay type: in vivo, mouse; settings: vs disease controls
Method: (§1) Determination of Colon B cell Populations. Small colon samples collected from either after immunization only or after colitis experiments were collected at experimental endpoints. Colon samples were flushed with PBS and then digested in a solution containing 200 U/mL collagenase from Clostridium histolyticum (Sigma, C5138) and 0.1 mg/mL DNase I (Sigma, 10104159001) in 1×PBS. Digestion occurred at 37° C. while shaking for a total of 30 minutes. The solutions were then filtered to isolate cells, spun down, and transferred into ice cold flow buffer (2% heat-inactivated FBS in 1×PBS). The cells were blocked with mouse BD Fc Block (Clone: 2.4G2) (BD Biosciences, 553142) for 30 min on ice and then washed in flow buffer and stained with antibodies against CD5-APC (Clone: 53-7.3) (BioLegend, 100626), CD19-APC/Cy7 (Clone: 6D5) (BioLegend, 115530), B220-PE (Clone: RA3-6B2) (BioLegend, […]), and CD138-PE/Cy7 (Clone: 281-2) (BioLegend, […]) in flow buffer for 30 min on ice. Cells were washed and DAPI was added. Flow cytometry was then conducted on a BD FACSCanto II cytometer and the results were analyzed using FlowJo software.

[3] = tested on: C57BL/6 mice; experiment: Chronic DSS-induced colitis, prophylactic immunization; assay type: in vivo, mouse
Excerpt: DSS-Induced Colitis and Assessment. Before inducing colitis, mice from each treatment group were divided amongst the cages to avoid any cage-related disease effects. This excluded the PBS without DSS (healthy) control mice which remained in their own cage and received normal drinking water for the duration of the experiment. Colitis was induced by administering 2% (w/v) colitis-grade dextran sodium sulfate (MP Biomedicals, 160110) in drinking water. For determination of prophylactic immunization efficacy, mice were immunized i.p. 3 times at days −35, −21 and −7 before colitis induction on Day 0. Chronic colitis was induced via DSS-containing water given for 5 days followed by 5 days of normal drinking water for 3 cycles, resulting in a 30-day model. A shorter, acute DSS-induced colitis model consisting of one cycle of colitis was achieved by giving 5 days of 2% DSS in water followed by 5 days of normal drinking water for a total of 10 days and was also examined in a preventative immunization scenario. Mice were weighed daily and evaluated for the IACUC approved humane endpoint of >30% weight loss as DSS mice regain weight quickly after DSS administration ceases. They were also monitored for occult blood with Hemoccult tape and developer (Beckman Coulter, 63202) and fecal consistency. Disease activity index (DAI) scores were a combination of weight loss (≥100%=0, 90-99%=1, 80-89%=2, […]), occult blood (no blood=0, blood=3), and fecal consistency (hard=0, soft=1, softer=2, runny=3), with a possible daily maximum score of 9. […] At the experimental endpoint, mice were euthanized, and colon lengths were measured from the base of the cecum to the rectum using digital calibrators. To determine immunization efficacy in a therapeutic colitis setting, colitis was first induced by administering one cycle of colitis achieved by 5 days of 2% DSS in water followed by 5 days of normal drinking water for a total of 10 days. Mice were monitored daily as described above until they on average regained their original body weight on day 20. At this point, i.p. immunizations were initiated and given three times over a 4-week period on days 20, 32, and 45, and colitis monitoring was reduced to twice weekly. An additional cycle of colitis was then induced on day 51 via 5 days of 2% DSS in water followed by 5 days of normal drinking water for a total of 10 days with daily monitoring. The entire therapeutic model ended on day 60, and colon lengths were measured as described above.
FITC-dextran Measurements. On the last day of the chronic and therapeutic DSS colitis models, mice were fasted overnight and then given 0.6 mg/g 3-5 KDa m.w. FITC-dextran (Sigma, FD4) in 100 μL of sterile 1×PBS via oral gavage. Serum samples were collected 3 h later at the experimental endpoint. To determine the intestinal barrier permeability, serum samples were diluted in 1×PBS and FITC fluorescence intensity was measured at an excitation of 488 nm and emission of 520 nm. Values were converted to pg/mL via a standard curve of FITC-dextran in serum.
Spleen Bacteria Measurements. At the conclusion of the DSS experiments, spleens were harvested and weighed followed by homogenization in 500 μL of 0.1% Triton X-100 in sterile 1×PBS using a Tissue Tearer handheld homogenizer (Biospec Products). 25 μL of homogenate solution was then spread on each quarter of culture plates consisting of tryptic soy broth No. 2 (Sigma, 51228) and Difco agar, granulated (BD Biosciences, 214530) in dilutions from 100 to 103. After a 48 hr incubation at 37° C., colony forming units (CFUs) were counted and converted to CFU/g of spleen tissue via the equations: […]
Colon IL-10 Quantification. At the conclusion of some DSS experiments, one half of the harvested mouse colons were flushed with PBS to remove fecal matter and flash frozen in liquid nitrogen. […]

[4] = tested on: B1a cells (CD19^+CD5^+); experiment: Colon B cell populations by flow cytometry: B1a cells; assay type: in vivo, mouse; settings: vs other DSS-administered mice
Method: as §1

[5] = 2% DSS, 3 cycles, 30 days, vs disease controls

Row | Substance | zeta potential (surface charge) of nanofibers [1] | colon plasma cells after chronic DSS colitis [2] | disease activity index (DAI) scores / disease severity [3, 5] | weight loss [3, 5] | serum anti-PC IgG subclass responses at week 5 ([3]; before DSS administration) | IL-10 levels in colon homogenates ([3]; chronic colitis experiment 1) | colon length (colon shortening) ([3]; day 30, vs disease controls) | serum anti-PC IgM ([3]; i.p. days −35, −21, −7, without CpG) | colonic B1a cells after chronic DSS colitis [4]
1 | C11H22NO6P-CSGSG-QQKFQFQFEQQ-NH2 (C(C11H22NO6P)SGSGQQKFQFQFEQQ-NH2) [PC-Q11, phosphodiester PC-Q11] | neutrally charged | – | – | – | – | – | – | – | –
2 | (C11H22NO6P)n-CCCCSGSG-QQKFQFQFEQQ-NH2 (CCCCSGSGQQKFQFQFEQQ-NH2; not fully specified; cysteine pairing not given here; also: phosphorylcholine groups (C11H22NO6P) n=1-4, attachment not placed) [PCM-Q11, linear multi-PC conjugate] | – | more plasma cells than disease controls | improved disease severity | reduced weight loss | skewed the subclass response towards non-inflammatory IgG1 with IgG2b also present | highest levels that were not significantly different from healthy controls | diminished colon shortening | did not induce anti-PC IgM within detection levels | decrease in B1a cells
